From patent US11357230B2, “Herbicidal amides” (FMC Corporation, priority 2017, dated 2022)

Tests used:
Format in all cases: in vivo
[1] = tested on: barnyardgrass (Echinochloa crus-galli); assay: Test A postemergence, barnyardgrass; settings: approximately 10 d
Description: (§1) Seeds of plant species selected from barnyardgrass (Echinochloa crus-galli), kochia (Kochia scoparia), ragweed (common ragweed, Ambrosia elatior), ryegrass, Italian (Italian ryegrass, Lolium multiflorum), foxtail, green (green foxtail, Setaria viridis), and pigweed (Amaranthus retroflexus) were planted into a blend of loam soil and sand and treated preemergence with a directed soil spray using test chemicals formulated in a non-phytotoxic solvent mixture which included a surfactant. At the same time, plants selected from these weed species and also wheat (Triticum aestivum), corn (Zea mays), blackgrass (Alopecurus myosuroides), and galium (catchweed bedstraw, Galium aparine) were planted in pots containing the same blend of loam soil and sand and treated with postemergence applications of test chemicals formulated in the same manner. Plants ranged in height from 2 to 10 cm and were in the one- to two-leaf stage for the postemergence treatment. Treated plants and untreated controls were maintained in a greenhouse for approximately 10 d, after which time all treated plants were compared to untreated controls and visually evaluated for injury. Plant response ratings, summarized in Table A, are based on a 0 to 100 scale where 0 is no effect and 100 is complete control. A dash (-) response means no test result.

[2] = tested on: blackgrass (Alopecurus myosuroides); assay: Test A postemergence, blackgrass; settings: approximately 10 d
Description: as §1

corn (Zea mays) = assay: Test A postemergence, corn; settings: approximately 10 d
Description: as §1

Foxtail, Giant [3] = assay: Test A postemergence, giant foxtail; settings: approximately 10 d
[4] = tested on: galium (catchweed bedstraw, Galium aparine); assay: Test A postemergence, galium; settings: approximately 10 d
Description: as §1

kochia (Kochia scoparia) [5] = assay: Test A postemergence, kochia; settings: approximately 10 d
Description: as §1

[6] = tested on: pigweed (Amaranthus retroflexus); assay: Test A postemergence, pigweed; settings: approximately 10 d
Description: as §1

[7] = tested on: ragweed (common ragweed, Ambrosia elatior); assay: Test A postemergence, ragweed; settings: approximately 10 d
Description: as §1

[8] = tested on: ryegrass, Italian (Italian ryegrass, Lolium multiflorum); assay: Test A postemergence, Italian ryegrass; settings: approximately 10 d
Description: as §1

[9] = tested on: wheat (Triticum aestivum); assay: Test A postemergence, wheat; settings: approximately 10 d
Description: as §1

[10] = tested on: barnyardgrass (Echinochloa crus-galli); assay: Test A preemergence, barnyardgrass; settings: approximately 10 d
Description: as §1

Foxtail, Giant [11] = assay: Test A preemergence, giant foxtail; settings: approximately 10 d
kochia (Kochia scoparia) [12] = assay: Test A preemergence, kochia; settings: approximately 10 d
Description: as §1

[13] = tested on: pigweed (Amaranthus retroflexus); assay: Test A preemergence, pigweed; settings: approximately 10 d
Description: as §1

[14] = tested on: ragweed (common ragweed, Ambrosia elatior); assay: Test A preemergence, ragweed; settings: approximately 10 d
Description: as §1

[15] = tested on: ryegrass, Italian (Italian ryegrass, Lolium multiflorum); assay: Test A preemergence, Italian ryegrass; settings: approximately 10 d
Description: as §1

[16] = tested on: barnyardgrass (Echinochloa crus-galli); assay: Test B flooded paddy test, barnyardgrass; settings: 250 g ai/ha, Flood (paddy water), 13 to 15 d
Procedure: (§2) Plant species in the flooded paddy test selected from rice (Oryza sativa), sedge, umbrella (small-flower umbrella sedge, Cyperus difformis), ducksalad (Heteranthera limosa), and barnyardgrass (Echinochloa crus-galli) were grown to the 2-leaf stage for testing. At time of treatment, test pots were flooded to 3 cm above the soil surface, treated by application of test compounds directly to the paddy water, and then maintained at that water depth for the duration of the test. Treated plants and controls were maintained in a greenhouse for 13 to 15 d, after which time all species were compared to controls and visually evaluated. Plant response ratings, summarized in Table B, are based on a scale of 0 to 100 where 0 is no effect and 100 is complete control. A dash (-) response means no test result.

[17] = tested on: ducksalad (Heteranthera limosa); assay: Test B flooded paddy test, ducksalad; settings: 250 g ai/ha, Flood (paddy water), 13 to 15 d
Procedure: as §2

rice (Oryza sativa) = assay: Test B flooded paddy test, rice; settings: 250 g ai/ha, Flood (paddy water), 13 to 15 d
Procedure: as §2

[18] = tested on: sedge, umbrella (small-flower umbrella sedge, Cyperus difformis); assay: Test B flooded paddy test, umbrella sedge; settings: 250 g ai/ha, Flood (paddy water), 13 to 15 d
Procedure: as §2

SMILES | Plant response rating (0 to 100 scale, 0 is no effect, 100 is complete control) ([1]; 31 g ai/ha) | Plant response rating (0 to 100 scale, 0 is no effect, 100 is complete control) ([1]; 125 g ai/ha) | Plant response rating (0 to 100 scale, 0 is no effect, 100 is complete control) ([2]; 31 g ai/ha) | Plant response rating (0 to 100 scale, 0 is no effect, 100 is complete control) ([2]; 125 g ai/ha) | Plant response rating (0 to 100 scale, 0 is no effect, 100 is complete control) (corn (Zea mays); 31 g ai/ha) | Plant response rating (0 to 100 scale, 0 is no effect, 100 is complete control) (corn (Zea mays); 125 g ai/ha) | Plant response rating (0 to 100 scale, 0 is no effect, 100 is complete control) (Foxtail, Giant [3]; 31 g ai/ha) | Plant response rating (0 to 100 scale, 0 is no effect, 100 is complete control) (Foxtail, Giant [3]; 125 g ai/ha) | Plant response rating (0 to 100 scale, 0 is no effect, 100 is complete control) ([4]; 31 g ai/ha) | Plant response rating (0 to 100 scale, 0 is no effect, 100 is complete control) ([4]; 125 g ai/ha) | Plant response rating (0 to 100 scale, 0 is no effect, 100 is complete control) (kochia (Kochia scoparia) [5]; 31 g ai/ha) | Plant response rating (0 to 100 scale, 0 is no effect, 100 is complete control) (kochia (Kochia scoparia) [5]; 125 g ai/ha) | Plant response rating (0 to 100 scale, 0 is no effect, 100 is complete control) ([6]; 31 g ai/ha) | Plant response rating (0 to 100 scale, 0 is no effect, 100 is complete control) ([6]; 125 g ai/ha) | Plant response rating (0 to 100 scale, 0 is no effect, 100 is complete control) ([7]; 31 g ai/ha) | Plant response rating (0 to 100 scale, 0 is no effect, 100 is complete control) ([7]; 125 g ai/ha) | Plant response rating (0 to 100 scale, 0 is no effect, 100 is complete control) ([8]; 31 g ai/ha) | Plant response rating (0 to 100 scale, 0 is no effect, 100 is complete control) ([8]; 125 g ai/ha) | Plant response rating (0 to 100 scale, 0 is no effect, 100 is complete control) ([9]; 31 g ai/ha) | Plant response rating (0 to 100 scale, 0 is no effect, 100 is complete control) ([9]; 125 g ai/ha) | other results
CN(C)N=C1[C@H](C(=O)Nc2cccc(F)c2F)[C@@H](c2ccc(C(F)(F)F)cc2)CN1C (relative stereo) [Compound 4] | 0 | 60 | 30 | 50 | 0 | 20 | 0 | 80 | 60 | 70 | 0 | 40 | 0 | 70 | 0 | 30 | 0 | 20 | 0 | 20 | Plant response rating (0 to 100 scale, 0 is no effect, 100 is complete control) ([10]; 31 g ai/ha): 50; Plant response rating (0 to 100 scale, 0 is no effect, 100 is complete control) ([10]; 125 g ai/ha): 90; Plant response rating (0 to 100 scale, 0 is no effect, 100 is complete control) (Foxtail, Giant [11]; 31 g ai/ha): 50; Plant response rating (0 to 100 scale, 0 is no effect, 100 is complete control) (Foxtail, Giant [11]; 125 g ai/ha): 90; Plant response rating (0 to 100 scale, 0 is no effect, 100 is complete control) (kochia (Kochia scoparia) [12]; 31 g ai/ha): 0; Plant response rating (0 to 100 scale, 0 is no effect, 100 is complete control) (kochia (Kochia scoparia) [12]; 125 g ai/ha): 30; Plant response rating (0 to 100 scale, 0 is no effect, 100 is complete control) ([13]; 31 g ai/ha): 0; Plant response rating (0 to 100 scale, 0 is no effect, 100 is complete control) ([13]; 125 g ai/ha): 60; Plant response rating (0 to 100 scale, 0 is no effect, 100 is complete control) ([14]; 31 g ai/ha): 0; Plant response rating (0 to 100 scale, 0 is no effect, 100 is complete control) ([14]; 125 g ai/ha): 0; Plant response rating (0 to 100 scale, 0 is no effect, 100 is complete control) ([15]; 31 g ai/ha): 0; Plant response rating (0 to 100 scale, 0 is no effect, 100 is complete control) ([15]; 125 g ai/ha): 10; Plant response rating (scale of 0 to 100, 0 is no effect, 100 is complete control) [16]: 55; Plant response rating (scale of 0 to 100, 0 is no effect, 100 is complete control) [17]: 75; Plant response rating (scale of 0 to 100, 0 is no effect, 100 is complete control) (rice (Oryza sativa)): 0; Plant response rating (scale of 0 to 100, 0 is no effect, 100 is complete control) [18]: 0
CC(=O)NN=C1[C@H](C(=O)Nc2cccc(F)c2F)[C@@H](c2ccc(C(F)(F)F)cc2)CN1C (relative stereo) [Compound 5] | 60 | 80 | 60 | 80 | 0 | 40 | 70 | 80 | 70 | 80 | 20 | 30 | 30 | 80 | 0 | 0 | 10 | 80 | 0 | 50 | Plant response rating (0 to 100 scale, 0 is no effect, 100 is complete control) ([10]; 31 g ai/ha): 90; Plant response rating (0 to 100 scale, 0 is no effect, 100 is complete control) ([10]; 125 g ai/ha): 90; Plant response rating (0 to 100 scale, 0 is no effect, 100 is complete control) (Foxtail, Giant [11]; 31 g ai/ha): 90; Plant response rating (0 to 100 scale, 0 is no effect, 100 is complete control) (Foxtail, Giant [11]; 125 g ai/ha): 90; Plant response rating (0 to 100 scale, 0 is no effect, 100 is complete control) (kochia (Kochia scoparia) [12]; 31 g ai/ha): 10; Plant response rating (0 to 100 scale, 0 is no effect, 100 is complete control) (kochia (Kochia scoparia) [12]; 125 g ai/ha): 90; Plant response rating (0 to 100 scale, 0 is no effect, 100 is complete control) ([13]; 31 g ai/ha): 70; Plant response rating (0 to 100 scale, 0 is no effect, 100 is complete control) ([13]; 125 g ai/ha): 80; Plant response rating (0 to 100 scale, 0 is no effect, 100 is complete control) ([14]; 31 g ai/ha): 0; Plant response rating (0 to 100 scale, 0 is no effect, 100 is complete control) ([14]; 125 g ai/ha): 70; Plant response rating (0 to 100 scale, 0 is no effect, 100 is complete control) ([15]; 31 g ai/ha): 20; Plant response rating (0 to 100 scale, 0 is no effect, 100 is complete control) ([15]; 125 g ai/ha): 90; Plant response rating (scale of 0 to 100, 0 is no effect, 100 is complete control) [16]: 45; Plant response rating (scale of 0 to 100, 0 is no effect, 100 is complete control) [17]: 65; Plant response rating (scale of 0 to 100, 0 is no effect, 100 is complete control) (rice (Oryza sativa)): 0; Plant response rating (scale of 0 to 100, 0 is no effect, 100 is complete control) [18]: 0
